Experimental findings from patent publication US7902195B2, “Pyridine [3,4-b] pyrazinones” (Pharmacia & Upjohn Company LLC, priority 2006, dated 2011) are described below.

For this test, the target named is T1, PDE5 enzyme isolated from human platelets (Homo sapiens, UniProt O76074).
T1 construct: The PDE5 enzyme for use in the assay can be obtained from human platelets; from tissue; host or cells: human platelets
The experiment in a line: Alternative human platelet PDE5 enzyme inhibition scintillation proximity assay (Method 2). The class given is biochemical. The note with it: cGMP substrate 50 nM, 60 minutes at room temperature. An excerpt:
The IC50 of a test compound can be measured using an in vitro assay using PDE5 enzyme isolated from human platelets. The IC50 is the concentration of test compound required to inhibit the hydrolysis of cGMP to GMP by the PDE5 enzyme by 50% relative to the activity of uninhibited controls. The PDE5 enzyme for use in the assay can be obtained from human platelets by appropriate modification of the method of Thompson, W J et al.; Biochemistry 18(23), 5228-5237, 1979, as described by Ballard S A et al.; J. Urology 159(6), 2164-2171, 1998. The PDE5 enzyme so obtained can be used to catalyze the hydrolysis of [^3H]cGMP (Amersham Biosciences) to 5′ nucleotide [^3H]GMP. The [^3H]GMP binds to yttrium silicate SPA beads (Amersham Biosciences) and is detected by scintillation counting. More specifically, the effect of a test compound at different concentrations can be evaluated in the assay by contacting the compound with a fixed amount of PDE5 enzyme in the presence of substrate (cGMP […] in a 3:1 ratio unlabelled to [^3H]-labeled). Scintillation counting can be used as described above to determine relative PDE5 enzyme activity. The inhibition of PDE5 enzyme activity is then calculated relative to total PDE5 enzyme activity of uninhibited controls.
Method 2: Alternative Human Platelet PDE5 Enzyme Inhibition Scintillation Proximity Assay
PDE5 IC50 Assay: 96-Well Microtiter Plate Format
Buffer A: 20 mM Tris-HCl, 5 mM MgCl2, pH 7.4
Buffer B: 2 mg/ml BSA in Buffer A (enzyme buffer)
cGMP substrate: Final concentration of 50 nM in assay
The amount of ^3H-labeled substrate added depends upon the specific activity of [^3H]cGMP, and it is diluted in Buffer A.
PDE enzyme: Prepared in Buffer B. The dilution factor is determined by enzyme activity.
SPA beads: 4 mg/ml suspension prepared in dH2O.
Stocks of standard and test compound are prepared at 2 mM in 100% DMSO. The test compound is serially diluted in a dilution plate using an 8-point ⅕ log dilution format such that the starting concentration in the assay is 2 μM for an initial IC50 screen. 27 μl of Buffer A are added to the wells of the assay plates. From the dilution plate, 3 μl of diluted compound is delivered in duplicate or 3 μl of 100% DMSO (for positive and negative controls) are added. 30 μl of enzyme are added. For the negative control wells, Buffer B is substituted in place of the enzyme. 30 μl of labeled substrate are added to all wells.
After incubating for 60 minutes at room temperature, the reaction is stopped with the addition of 30 μl of the yttrium silicate beads. These beads are dense and require constant agitation while being added to the plate. The plates are sealed and shaken on a plate shaker for fifteen minutes to allow the beads to bind the GMP product.
After allowing the beads to settle for 30 minutes, plates are read on a NXT TopCount scintillation counter and the data are analyzed as follows. Percent inhibition values are calculated using the means of the 0% and 100% controls on each plate. The estimates of the 4-parameters of the logistic, sigmoid dose-response model are then calculated using the well-level percent inhibition value for the compound. The formula for the four-parameter logistic model may be expressed as Y=((a−d)/(1+(X/c)^b))+d, where Y is the response, X is the concentration, a is the lower asymptote (minimum response), d is the upper asymptote (maximum response), c is the model IC50 (in the same units as X), and b is the slope (as described in De Lean, A., P. J. Munson, and D. Rodbard (“Simultaneous analysis of families of sigmoidal curves: application to bioassay, radioligand assay, and physiological dose-response curves.” Am. J. Physiol. 235(2): E97-E102, 1978). These estimates are used to calculate the concentration that corresponds to 50% inhibition.
Compounds were tested in accordance with Method 2 above yielding the IC50 values described in Table C.
Usually IC50 stands for the concentration that gives 50% inhibition. A higher IC50 goes with lower potency. The compound `CCCOCCn1c(=O)c(N2CCC(C(N)=O)CC2)nc2cnc(-c3ccc(OC)nc3)cc21` [Example 41, 1-(1,2-dihydro-7-(6-methoxypyridin-3-yl)-2-oxo-1-(2-propoxyethyl)pyrido[3,4-b]pyrazin-3-yl)piperidine-4-carboxamide] had an IC50 of 0.249 nM.
`CCCOCCn1c(=O)c(N2CCCN(CCCO)CC2)nc2cnc(-c3ccc(OC)nc3)cc21` [Example 48, 3-(4-(3-hydroxypropyl)-1,4-diazepan-1-yl)-7-(6-methoxypyridin-3-yl)-1-(2-propoxyethyl)pyrido[3,4-b]pyrazin-2(1H)-one] registered a half-inhibitory concentration (IC50) of 1.07 nM.
Compound `CCCOCCn1c(=O)c(N2CCN(CCO)CC2)nc2cnc(-c3ccc(F)c(C)c3)cc21` [Example 25, 7-(4-fluoro-3-methylphenyl)-3-(4-(2-hydroxyethyl)piperazin-1-yl)-1-(2-propoxyethyl)pyrido[3,4-b]pyrazin-2(1H)-one] came in with an IC50 of 1.87 nM.
Under `CCCOCCn1c(=O)c(N2CCN(CCO)CC2)nc2cnc(-c3cccc(C)c3)cc21` [Example 36, 3-(4-(2-hydroxyethyl)piperazin-1-yl)-1-(2-propoxyethyl)-7-m-tolylpyrido[3,4-b]pyrazin-2(1H)-one] stands 423 nM; under `CCCOCCn1c(=O)c(N2CCN(CCO)CC2)nc2cnc(-c3cccc(F)c3F)cc21` [Example 26, 7-(2,3-difluorophenyl)-3-(4-(2-hydroxyethyl)piperazin-1-yl)-1-(2-propoxyethyl)pyrido[3,4-b]pyrazin-2(1H)-one], 47.1 nM; under `CCCOCCn1c(=O)c(N2CCN(C[C@H](C)O)CC2)nc2cnc(-c3ccc(OC)nc3)cc21` [Example 46, 3-(4-((S)-2-hydroxypropyl)piperazin-1-yl)-7-(6-methoxypyridin-3-yl)-1-(2-propoxyethyl)pyrido[3,4-b]pyrazin-2(1H)-one], 0.306 nM.
The result for `CCCOCCn1c(=O)c(N2CCN(CCO)CC2)nc2cnc(-c3ccc(OC)c(C)c3)cc21` [Example 35, 3-(4-(2-hydroxyethyl)piperazin-1-yl)-7-(4-methoxy-3-methylphenyl)-1-(2-propoxyethyl)pyrido[3,4-b]pyrazin-2(1H)-one] reads 1.69 nM; that for `CCCOCCn1c(=O)c(N2CCN(CC(=O)OC(C)(C)C)CC2)nc2cnc(-c3ccc(OC)nc3)cc21` [Example 7, tert-butyl {4-[7-(6-methoxypyridin-3-yl)-2-oxo-1-(2-propoxyethyl)-1,2-dihydropyrido[3,4-b]pyrazin-3-yl]piperazin-1-yl}acetate], 0.083 nM.
Under `CCCOCCn1c(=O)c(N2CCN(CCO)CC2)nc2cnc(-c3cccc(CO)c3)cc21` [Example 30, 3-(4-(2-hydroxyethyl)piperazin-1-yl)-7-(3-(hydroxymethyl)phenyl)-1-(2-propoxyethyl)pyrido[3,4-b]pyrazin-2(1H)-one] stands 311 nM.
As to `CCCOCCn1c(=O)c(N2CCCC(C(N)=O)C2)nc2cnc(-c3ccc(OC)nc3)cc21` (stereo not shown) [Example 40, 1-(1,2-dihydro-7-(6-methoxypyridin-3-yl)-2-oxo-1-(2-propoxyethyl)pyrido[3,4-b]pyrazin-3-yl)piperidine-3-carboxamide], the IC50 is 0.296 nM.
Under `CCCOCCn1c(=O)c(N2CCN(CCO)CC2)nc2cnc(-c3ccc(CO)cc3)cc21` [Example 23, 3-(4-(2-hydroxyethyl)piperazin-1-yl)-7-(4-(hydroxymethyl)phenyl)-1-(2-propoxyethyl)pyrido[3,4-b]pyrazin-2(1H)-one] stands 1790 nM.
Under `CCCOCCn1c(=O)c(N2CCCC(CO)C2)nc2cnc(-c3ccc(OC)nc3)cc21` (stereo not shown) [Example 6, 3-[3-(hydroxymethyl)piperidin-1-yl]-7-(6-methoxypyridin-3-yl)-1-(2-propoxyethyl)pyrido[3,4-b]pyrazin-2(1H)-one] stands 0.313 nM; under `CCCOCCn1c(=O)c(N2CCN(C[C@@H](C)O)CC2)nc2cnc(-c3ccc(OC)nc3)cc21` [Example 47, 3-(4-((R)-2-hydroxypropyl)piperazin-1-yl)-7-(6-methoxypyridin-3-yl)-1-(2-propoxyethyl)pyrido[3,4-b]pyrazin-2(1H)-one], 0.226 nM.
